Laboratory results from PMC6930522, “Structure-Based Pharmacophore Modeling, Virtual Screening, Molecular Docking and Biological Evaluation for Identification of Potential Poly (ADP-Ribose) Polymerase-1 (PARP-1) Inhibitors” (Molecules, 2019).
Read-outs that look alike come from different tables or passages of the source.

Tests used:
[1] = molecular target: T1, PARP-2 (Homo sapiens, UniProt Q9UGN5); assay: In vitro PARP inhibition assay (PARP-2); type: biochemical
T1 construct: purchased Trevigan (Gaithersburg, MD, USA)
T1 sequence (Q9UGN5 whole entry): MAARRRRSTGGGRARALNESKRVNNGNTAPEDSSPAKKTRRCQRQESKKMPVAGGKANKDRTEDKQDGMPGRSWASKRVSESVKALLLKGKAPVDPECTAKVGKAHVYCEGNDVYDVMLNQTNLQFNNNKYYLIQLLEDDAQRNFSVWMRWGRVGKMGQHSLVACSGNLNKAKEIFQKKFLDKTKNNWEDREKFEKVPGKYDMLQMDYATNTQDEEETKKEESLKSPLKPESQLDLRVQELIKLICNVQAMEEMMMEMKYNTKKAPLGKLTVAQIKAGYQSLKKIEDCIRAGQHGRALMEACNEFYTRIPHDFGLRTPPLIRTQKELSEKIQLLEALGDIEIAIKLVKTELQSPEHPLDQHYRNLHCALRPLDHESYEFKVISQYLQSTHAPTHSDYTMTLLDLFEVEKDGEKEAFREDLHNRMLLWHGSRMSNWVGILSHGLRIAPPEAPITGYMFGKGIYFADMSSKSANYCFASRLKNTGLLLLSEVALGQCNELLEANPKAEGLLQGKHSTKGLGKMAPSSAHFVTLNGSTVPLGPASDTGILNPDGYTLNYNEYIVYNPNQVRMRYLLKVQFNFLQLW
Description: (§1) Purified recombinant human PARPs from Trevigan (Gaithersburg, MD, USA) was used to determine the IC50 values of a PARP inhibitor. The PARP enzyme assay was set up on ice in a volume of 100 μL consisting of 50 mM Tris–HCl (pH 8.0), 2 mM MgCl2, 30 μg/mL of DNase activated herring sperm DNA (Sigma, MO, USA), 30 μM [^3H]nicotinamide adenine dinucleotide (67 mCi/mmol), 75 μg/mL PARP enzyme and various concentrations of the compounds to be tested. The reaction was initiated by incubating the mixture at 25 °C. After 15 min of incubation, the reaction was terminated by adding 500 μL of ice cold 20% (w/v) trichloroacetic acid. The formed precipitate was transferred onto a glass fiber filter (Packard Unifilter–GF/B) and washed three times with ethanol. After the filter is dried, the radioactivity is determined by scintillation counting.

[2] = molecular target: T2, PARP-3 (Homo sapiens, UniProt Q9Y6F1); assay: In vitro PARP inhibition assay (PARP-3); type: biochemical; details: Table 4
T2 construct: purchased Trevigan (Gaithersburg, MD, USA)
T2 sequence (Q9Y6F1 1-533): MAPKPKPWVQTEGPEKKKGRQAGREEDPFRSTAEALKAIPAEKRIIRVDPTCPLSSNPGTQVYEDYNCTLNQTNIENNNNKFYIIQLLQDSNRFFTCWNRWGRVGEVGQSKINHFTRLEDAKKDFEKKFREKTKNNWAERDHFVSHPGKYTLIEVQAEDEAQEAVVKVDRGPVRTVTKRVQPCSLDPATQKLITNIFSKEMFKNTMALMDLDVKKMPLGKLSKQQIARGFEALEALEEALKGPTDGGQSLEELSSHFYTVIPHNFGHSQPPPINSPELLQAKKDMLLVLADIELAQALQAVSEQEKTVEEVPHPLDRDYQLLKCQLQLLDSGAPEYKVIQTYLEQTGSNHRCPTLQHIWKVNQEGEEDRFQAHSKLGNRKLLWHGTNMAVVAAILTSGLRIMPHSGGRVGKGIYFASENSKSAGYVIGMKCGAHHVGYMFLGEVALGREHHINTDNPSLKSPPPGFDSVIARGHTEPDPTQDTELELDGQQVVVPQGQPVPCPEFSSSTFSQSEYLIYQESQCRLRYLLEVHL
Description: as §1

[3] = system: human lung cancer A549 cells; assay: MTT assay, proliferation of A549 cells; type: cell-based; details: 48 h, different concentrations, Figure 5
Description: A549 cells were seeded in a 96-well culture plate and allowed to grow overnight. Then, cells were exposed to different concentrations of compounds 1–4 and incubated at 37 °C for 48 h. After that, an MTT stock solution (0.5 mg/mL) was added into each well and the plate was incubated for 4 h. The 150 µL of DMSO was used for fixing the MTT-treated cells and the absorbance of each sample was recorded at 490 nm with a Microplate Spectrophotometer.

[4] = molecular target: T3, PARP-1 (Homo sapiens, UniProt P09874); assay: In vitro PARP inhibition assay (PARP-1); type: biochemical; details: Table 3; PARP-1 enzyme assay, mean ± SD, three independent experiments
T3 construct: purchased Trevigan (Gaithersburg, MD, USA)
T3 sequence (P09874 whole entry): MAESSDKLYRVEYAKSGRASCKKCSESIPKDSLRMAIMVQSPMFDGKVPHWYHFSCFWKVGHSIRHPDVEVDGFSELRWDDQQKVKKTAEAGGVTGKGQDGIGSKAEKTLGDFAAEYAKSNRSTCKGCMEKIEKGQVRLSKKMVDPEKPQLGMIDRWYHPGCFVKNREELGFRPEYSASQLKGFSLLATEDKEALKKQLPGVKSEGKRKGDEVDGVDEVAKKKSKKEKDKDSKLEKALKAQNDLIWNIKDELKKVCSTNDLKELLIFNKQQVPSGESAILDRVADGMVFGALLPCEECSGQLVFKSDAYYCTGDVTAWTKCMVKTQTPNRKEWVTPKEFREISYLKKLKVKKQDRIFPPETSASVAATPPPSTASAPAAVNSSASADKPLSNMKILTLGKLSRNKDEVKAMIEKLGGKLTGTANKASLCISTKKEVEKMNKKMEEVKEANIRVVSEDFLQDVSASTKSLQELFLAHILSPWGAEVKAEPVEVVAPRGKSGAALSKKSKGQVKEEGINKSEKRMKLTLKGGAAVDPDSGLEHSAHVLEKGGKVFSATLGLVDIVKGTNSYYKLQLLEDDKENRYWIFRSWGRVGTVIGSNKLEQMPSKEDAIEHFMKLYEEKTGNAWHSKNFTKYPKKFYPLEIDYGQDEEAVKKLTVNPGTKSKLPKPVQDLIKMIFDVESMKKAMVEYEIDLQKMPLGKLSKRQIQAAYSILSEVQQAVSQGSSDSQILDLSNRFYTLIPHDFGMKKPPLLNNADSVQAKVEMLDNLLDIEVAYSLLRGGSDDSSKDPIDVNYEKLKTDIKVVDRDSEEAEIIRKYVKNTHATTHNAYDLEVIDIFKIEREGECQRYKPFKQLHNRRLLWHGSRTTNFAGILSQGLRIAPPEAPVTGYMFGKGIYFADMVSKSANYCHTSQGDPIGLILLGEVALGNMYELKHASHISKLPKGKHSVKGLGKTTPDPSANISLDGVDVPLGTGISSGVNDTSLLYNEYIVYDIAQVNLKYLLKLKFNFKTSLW
Description: as §1

SMILES | IC50 [1] [µM] | IC50 [2] [µM] | Inhibition of growth/proliferation of A549 cells [3] | IC50 [4] [µM] | IC50 ([1]; Table 4, read-out: PARP-2) [µM] | PARP-2/PARP-1 ([1]; selectivity ratio of IC50 values)
NC(=O)c1cccc2c1C(=O)N(C1CCN(Cc3ccc(F)cc3)CC1)C2 [Compound 1] | > 35 | > 100 | stronger anti-proliferation effects than compounds 2 and 3 | – | – | –
CN(C)CCNc1ccc2[nH]c(=O)c3ccccc3c2n1 [Compound 2] | – | – | – | 0.19 ± 0.026 | – | –
CC(=O)Nc1cccc(Cn2c(=O)[nH]c(=O)c3ccccc32)c1 [Compound 3] | – | – | – | 0.16 ± 0.013 | – | –
CCc1ccc(-c2nc3cccc4c3n2CCNC4=O)cc1 [Compound 4] | – | > 100 | stronger anti-proliferation effects than compounds 2 and 3 | 0.065 ± 0.008 | > 35 | >1000
Cc1nc2c(O)cccc2c(=O)[nH]1 [NU1025, reference compound] | – | – | – | 0.4 ± 0.035 | – | –
